Test results taken from patent US8481489B2, “GH secretagogues and uses thereof” (Theratechnologies Inc., priority 2003, dated 2013).
“And” between values parts separate entries of the source, which are not always exact repeats. Identical values can stand only once. “Also recorded” adds a separate entry of the source. Like-named read-outs stand apart in the source and are kept apart here. Marks after values point to notes of the source that are not given here.

What was measured:
[1] = system: patients exhibiting sleep maintenance insomnia; assay: Continuous Performance Test (CPT), 14-day study in sleep maintenance insomnia; format: in vivo, human; conditions: 14 days
Experimental: Patients were selected based on the Pittsburgh Sleep Quality Index (Score ≧5), the Walters Criteria for Sleep Maintenance Insomnia, and the Beck Questionnaire (Score ≦17). The primary exclusion criteria were other primary sleep disorders and the use of any products affecting sleep or vigilance in the 30 days prior to entering the study.
The study was a randomized, double-blind, placebo-controlled, parallel group and multicenter evaluation of two doses of TH9507 (0.1 mg and 1 mg) administered daily by subcutaneous injection at bedtime for 14 consecutive days. To evaluate vigilance and the performance in the morning, patients underwent a battery of cognitive tests including the Continuous Performance Test (CPT) at baseline and at the end of treatment period.
The CPT has been described in the literature as a measure of consistency in responding and ability to sustain attention over time (Aleman A, et al., J Clin Endocrinol Metab 1999 84(2):471-475). This test required subjects to press space bar each time the letter “A” was followed by “X”. Omission and commission errors, and Mean Reaction Time of correct responses were analyzed.

[2] = system: healthy subjects exhibiting age-related sleep impairment; assay: P300 event-related potential test, 7-day cross-over study; format: in vivo, human; conditions: 1 mg daily for 7 days
Experimental: In this study, TH9507 was administered daily for 7 days in a cross-over design. […] Changes from Baseline to day 9 in the Pz amplitude of the Evoked Related Potential (P300) observed in the placebo and 1 mg group were as follows: Placebo, −15%; 1 mg, +55%, P=0.0114, as analyzed by an ANOVA model.

[3] = Safety profile in the two vigilance studies; format: in vivo, human
[4] = format: in vivo, human; conditions: 1 or 2 mg SC daily, 8 weeks
Experimental: Eighty seven (87) subjects aged 75 years in average were included in a double-bind, randomized, placebo-controlled study. TH9507 or a placebo was administered at a daily dose of 1 or 2 mg by subcutaneous injection for 8 weeks. Follow-up assessments were conducted for 12 weeks after the end of the treatment period. At week 4, in the middle of the treatment period, subjects received the commercial Canadian influenza vaccine (Vaccine Fluviral® S/F, Shire, Montreal, Canada) containing 15 μg each of A/New Caledonia/20/99, A/Panama/2007/99, B/Victoria/504/2000 antigens.

[5] = TH9507 PK profile, 7-day study in healthy men; format: in vivo, human
Experimental: The study used a randomized, double-blind, placebo-controlled design and was conducted in healthy men, aged 50 to 60 years old. Subjects (8 per group) were injected S.C. once a day for 7 consecutive days with placebo, 0.5, 1 or 2 mg of TH9507. Circulating IGF-1 levels were measured on Days 1 to 7. The 12 hour GH response and TH9507 PK profile were determined on Day 1 and 7.

IGF-1 = IGF-1 levels in type II diabetic patients; format: in vivo, human; conditions: end of 12-week treatment period
Experimental: A double-blind placebo-controlled study was conducted in 53 type II diabetic patients (age=61±7 [SD]; 34% female) on stable antidiabetic medication (26% on insulin). Patients were randomized to parallel groups to receive daily subcutaneous administration of a placebo, 1 mg or 2 mg TH9507, respectively.

[6] = system: HIV-infected patients with abdominal fat accumulation; conditions: change from baseline, Week 12, mean (SD)
Experimental: (§1) Design: Randomized, placebo-controlled, multi-center, dose ranging (placebo, 1 mg or 2 mg SC QD), parallel group, 12-week study
(§2) At the baseline visit, anthropometric measurements were obtained. […] Biochemical parameters including insulin-like growth factor-I, glucose, insulin, lipid profile (cholesterol, HDL, LDL, triglyceride, non HDL and the ratio of cholesterol:HDL), free fatty acids, HbA1C, IGFBP-3, and bone markers (serum osteocalcin and NTX-1), CD4, viral load, and a pregnancy test for female subjects were determined in the fasting state. In addition, insulin and glucose response to a 75 gram standard glucose challenge were assessed and a quality of life questionnaire was administered.
(§3) Clinical laboratory testing was performed by a central lab. Serum IGF-1 was measured after acid-ethanol extraction using the Esoterix RIA kit (Esoterix Inc., Calabasas Hill, Calif.), with a sensitivity of 10 ng/mL. Intra- and inter-assay coefficients of variation were 4.6-20% and 9-10%, respectively. Serum IGFBP-3 was measured using the Esoterix RIA kit (Esoterix Inc., Calabasas Hill, Calif.) with a sensitivity of 0.3 mg/mL. Intra- and inter-assay coefficients of variation were 5.1-13% and 5.5-17%, respectively. HDL, LDL, total cholesterol, triglycerides and FFA were determined by enzymatic calorimetric assay. Glucose was measured by enzymatric test (Gluco-Quant®, Roche diagnostics, Indianapolis, Ind.). HbA1c was determined by chromatography.
(§4) Other endpoints included IGF-I, lipid parameters, glucose and insulin, CD4, viral load, bone markers, and quality of life. A sample size of 20 patients/group was planned to assess a statistically significant change of 10% or more in intra-group analyses. The planned dropout rate was 25% and therefore 60 patients were enrolled into the study. Baseline data are compared between the groups by F-test based on ANOVA for continuous variables and Chi-Square test for categorical variables. Change over time between groups is compared by ANOVA or the Chi-Square test. Where appropriate, data were rank transformed prior to analysis. Changes within each group are determined by t-test. The ITT (intent to treat) population is defined as all subjects who received at least one dose of the study treatment. Descriptive statistics and analyses for all efficacy and safety analyses are performed on the ITT population. End of study, 12 week, data are used to calculate changes in body composition. For biochemical indices, the last observation available is used to calculate change. Imputation for missing data is not performed. For body composition, end of study data are used to calculate change. Interim analyses were not performed. Results are mean (SD) unless otherwise noted. All statistical tests were performed with a two-sided Type I error level of 0.05.

[7] = in vivo
[8] = system: HIV-infected patients with abdominal fat accumulation; assay: Lipid parameters, HIV lipodystrophy study; conditions: mean (SD); for Chol:HDL, Δ / HDL, Δ / LDL, Δ / NONHDL Cholesterol, Δ / Total Cholesterol, Δ / Triglycerides, Δ: change from baseline, Week 12; for Triglyceride levels change / ratio of cholesterol to HDL change: last observation values
Experimental: as §1, §2, §3, §4

[9] = system: HIV-infected patients with abdominal fat accumulation; assay: Body composition by DEXA, HIV lipodystrophy study; conditions: for Fat Mass, Δ / Lean Body Mass, Δ / Limb Fat, Δ / Trunk Fat, Δ: change from baseline, Week 12, mean (SD)
Experimental: as §1
(§5) Patients: 61 HIV-infected patients (BMI 28±3 [SD] kg/m^2, 28% diabetic or glucose intolerant) with increased waist circumference (102 cm±8 [SD]) and waist/hip (1.0±0.1 [SD])
(§6) At the baseline visit, anthropometric measurements were obtained. Total body lean and fat mass as well as regional fat mass in the trunk and extremities were assessed by DEXA. Abdominal subcutaneous and visceral fat area and the ratio of VAT to SAT were determined by cross-sectional CT at L4-L5.
(§7) Whole body and regional DEXA (dual energy X-ray absorptiometry) and cross-sectional abdominal CT scans were performed at the individual study sites based on previously established protocols and were standardized across sites. Digitized images were sent to a central reading center, St. Lukes Roosevelt Hospital, for analysis by independent experts without knowledge of treatment assignment. Each site was given a procedure manual to follow in obtaining the body composition data and was certified in the proper technique. For the CT scans, parameters were standardized as follows: Tube Voltage=120 kV, Tube Current=250 mA, Exposure=375 mAs, matrix 512×512. DFOV was set to include the entire slice into the field of view. For the DEXA scans total body scans were performed with analysis of lean body mass, total fat mass, and regional fat mass in the trunk and extremities as previously described (16).
(§8) Body composition endpoints included trunk fat and trunk to limb fat ratio by DEXA and VAT and VAT:SAT by CT scan. […] Baseline data are compared between the groups by F-test based on ANOVA for continuous variables and Chi-Square test for categorical variables. Change over time between groups is compared by ANOVA or the Chi-Square test. Where appropriate, data were rank transformed prior to analysis. Changes within each group are determined by t-test. The ITT (intent to treat) population is defined as all subjects who received at least one dose of the study treatment. Descriptive statistics and analyses for all efficacy and safety analyses are performed on the ITT population. End of study, 12 week, data are used to calculate changes in body composition. […] Imputation for missing data is not performed. For body composition, end of study data are used to calculate change. […] Results are mean (SD) unless otherwise noted. All statistical tests were performed with a two-sided Type I error level of 0.05.

IGF-1 and IGFBP-3 = assay: Serum IGF-1 and IGFBP-3 (RIA), HIV lipodystrophy study; conditions: change from baseline, Week 12, mean (SD)
Experimental: as §1, §2, §3, §4

[10] = system: HIV-infected patients with abdominal fat accumulation; assay: Bone turnover markers (osteocalcin, NTX), HIV lipodystrophy study; conditions: for NTX, Δ / Osteocalcin, Δ: change from baseline, Week 12, mean (SD)
Experimental: as §1
Biochemical parameters including insulin-like growth factor-I, glucose, insulin, lipid profile (cholesterol, HDL, LDL, triglyceride, non HDL and the ratio of cholesterol:HDL), free fatty acids, HbA1C, IGFBP-3, and bone markers (serum osteocalcin and NTX-1), CD4, viral load, and a pregnancy test for female subjects were determined in the fasting state.
Clinical laboratory testing was performed by a central lab. […] NTX (N-terminal telopeptide of type I collagen; a bone resorption marker) was measured by ELISA using a commercially available kit (Osteomark™, Ostex International Inc., Seattle, Wash.). Osteocalcin was measured using a commercially available enzymatic immunoassay kit (Metra™ osteocalcin, Quidel Corporation, San Diego, Calif.). CD4 and viral load were performed by the individual site labs by routine methodology.

[11] = system: HIV-infected patients with abdominal fat accumulation; assay: Abdominal VAT and SAT by cross-sectional CT, HIV lipodystrophy study; conditions: for SAT, Δ / VAT, Δ: change from baseline, Week 12, mean (SD)
Experimental: as §1, §5, §6, §7, §8

[12] = Adverse events, discontinuation and safety laboratory, HIV lipodystrophy study

For CC/C=C/CC(=O)N[C@@H](Cc1ccc(O)cc1)C(=O)N[C@@H](C)C(=O)N[C@@H](CC(=O)O)C(=O)N[C@@H](C)C(=O)N[C@H](C(=O)N[C@@H](Cc1ccccc1)C(=O)N[C@H](C(=O)N[C@@H](CC(N)=O)C(=O)N[C@@H](CO)C(=O)N[C@@H](Cc1ccc(O)cc1)C(=O)N[C@@H](CCCNC(=N)N)C(=O)N[C@@H](CCCCN)C(=O)N[C@H](C(=O)N[C@@H](CC(C)C)C(=O)NCC(=O)N[C@@H](CCC(N)=O)C(=O)N[C@@H](CC(C)C)C(=O)N[C@@H](CO)C(=O)N[C@@H](C)C(=O)N[C@@H](CCCNC(=N)N)C(=O)N[C@@H](CCCCN)C(=O)N[C@@H](CC(C)C)C(=O)N[C@@H](CC(C)C)C(=O)N[C@@H](CCC(N)=O)C(=O)N[C@@H](CC(=O)O)C(=O)N[C@H](C(=O)N[C@@H](CCSC)C(=O)N[C@@H](CO)C(=O)N[C@@H](CCCNC(=N)N)C(=O)N[C@@H](CCC(N)=O)C(=O)N[C@@H](CCC(N)=O)C(=O)NCC(=O)N[C@@H](CCC(=O)O)C(=O)N[C@@H](CO)C(=O)N[C@@H](CC(N)=O)C(=O)N[C@@H](CCC(N)=O)C(=O)N[C@@H](CCC(=O)O)C(=O)N[C@@H](CCCNC(=N)N)C(=O)NCC(=O)N[C@@H](C)C(=O)N[C@@H](CCCNC(=N)N)C(=O)N[C@@H](C)C(=O)N[C@@H](CCCNC(=N)N)C(=O)N[C@@H](CC(C)C)C(N)=O)[C@@H](C)CC)C(C)C)[C@@H](C)O)[C@@H](C)CC [TH9507, (hexenoyl trans-3)hGRF(1-44)NH2], the “Mean Reaction Time of the CPT, decrease from baseline” value ([1]; 0.1 mg SC daily at bedtime, baseline to day 9) was 45.85 ms, the “Mean Reaction Time of the CPT vs placebo” value ([1]; 1 mg SC daily at bedtime) was “No significant effect” and the “Change from Baseline to day 9 in the Pz amplitude of the Evoked Related Potential (P300)” value [2] was “+55%”. For the same molecule, the “reactions at the site of injection” value ([3]; 1 mg, insomnia study, vs placebo) was “higher incidence”, the safety profile ([3]; both vigilance studies) was “comparable to that of the placebo” and the “incidence of adverse events between treatment groups” value [4] was “No major difference”. The “incidence of reactions at the site of injection” value [4] was “dose-related trend”, the “Cmax and AUC parameters” value ([5]; 0.5, 1, 2 mg SC) was “increased in function of the dose administered” and the half-life ([5]; male, human, in vivo, SC, healthy men) was 2 to 5 h. For the same molecule, the IGF-1 levels (IGF-1) was “dose-related increase”, the “Fasting Glucose, Δ” value ([6]; 1 mg SC QD) was 0.1 (0.5) mmol/L and the “Fasting Insulin, Δ” value ([6]; 1 mg SC QD) was −2.8 (27.6) mUI/L. The “HBA1c, Δ” value ([6]; 1 mg SC QD) was 0.2 (0.4)* %, the “HOMA-R, Δ” value ([6]; 1 mg SC QD) was 0.8 (7.0) and the “Two hour glucose, Δ” value ([6]; 1 mg SC QD) was 0.1 (2.1) mmol/L. The “Fasting Glucose, Δ” value ([6]; 2 mg SC QD) was 0.1 (0.7) mmol/L, the “Fasting Insulin, Δ” value ([6]; 2 mg SC QD) was 7.4 (6.2) mUI/L and the “HBA1c, Δ” value ([6]; 2 mg SC QD) was −0.0 (0.5) %. The “HOMA-R, Δ” value ([6]; 2 mg SC QD) was 2.0 (1.6), the “Two hour glucose, Δ” value ([6]; 2 mg SC QD) was 0.7 (1.7) mmol/L and the Anti-TH9507 antibodies [7] was “not detected”. For the same molecule, the “Blood pressure and heart rate” value [7] was “did not change”, the “Safety laboratory values, including hemoglobin, WBC, LFT's, creatinine” value [7] was “did not differ” and the “Chol:HDL, Δ” value ([8]; 1 mg SC QD) was −0.3 (0.6). The “HDL, Δ” value ([8]; 1 mg SC QD) was 0.0 (0.2) mmol/L, the “LDL, Δ” value ([8]; 1 mg SC QD) was 0.1 (0.8) mmol/L and the “NONHDL Cholesterol, Δ” value ([8]; 1 mg SC QD) was −0.4 (1.5) mmol/L. The “Total Cholesterol, Δ” value ([8]; 1 mg SC QD) was −0.4 (1.7) mmol/L, the “Triglycerides, Δ” value ([8]; 1 mg SC QD) was −1.1 (4.4) mEq/L and the Triglyceride levels change ([8]; 1 mg SC QD) was −0.9 (4.2). For the same molecule, the “ratio of cholesterol to HDL change” value ([8]; 1 mg SC QD) was −0.3 (0.7), the “Chol:HDL, Δ” value ([8]; 2 mg SC QD) was −0.3 (0.7) and the “HDL, Δ” value ([8]; 2 mg SC QD) was 0.1 (0.1)* mmol/L. For the same molecule, the “LDL, Δ” value ([8]; 2 mg SC QD) was 0.2 (0.7) mmol/L, the “NONHDL Cholesterol, Δ” value ([8]; 2 mg SC QD) was −0.1 (0.7) mmol/L and the “Total Cholesterol, Δ” value ([8]; 2 mg SC QD) was −0.1 (0.8) mmol/L. For the same molecule, the “Triglycerides, Δ” value ([8]; 2 mg SC QD) was −0.9 (1.3)* mEq/L, the Triglyceride levels change ([8]; 2 mg SC QD) was −0.9 (1.2) and the “ratio of cholesterol to HDL change” value ([8]; 2 mg SC QD) was −0.3 (0.6). The Trunk fat change ([9]; 1 mg SC QD, 12 weeks) was −4.6%, the “Fat Mass, Δ” value ([9]; 1 mg SC QD) was −0.4 (1.8) kg and the “Lean Body Mass, Δ” value ([9]; 1 mg SC QD) was 0.7 (2.0) kg. For the same molecule, the “Limb Fat, Δ” value ([9]; 1 mg SC QD) was 0.1 (0.5) kg, the “Trunk Fat, Δ” value ([9]; 1 mg SC QD) was −0.5 (1.4) kg and the Trunk fat change ([9]; 2 mg SC QD, 12 weeks) was −9.2%. The “Fat Mass, Δ” value ([9]; 2 mg SC QD) was −1.4 (2.0) kg and −1.4 (2.0)* kg, the “Lean Body Mass, Δ” value ([9]; 2 mg SC QD) was 1.7 (2.3) kg and 1.7 (2.3)* kg and the “Limb Fat, Δ” value ([9]; 2 mg SC QD) was −0.3 (0.8) kg. For the same molecule, the “Trunk Fat, Δ” value ([9]; 2 mg SC QD) was −1.1 (1.3)* kg, the limb fat ([9]; 1 and 2 mg SC QD, 12 weeks) was “no significant change” and the “IGF-1, Δ” value (IGF-1 and IGFBP-3; 1 mg SC QD) was 87 (67) ng/mL and 87.5 (66.9)* ng/mL. For the same molecule, the “IGFBP-3, Δ” value (IGF-1 and IGFBP-3; 1 mg SC QD) was 0.6 (0.7)* Mg/L, the “IGF-1, Δ” value (IGF-1 and IGFBP-3; 2 mg SC QD) was 123 (79) ng/mL and 122.6 (79.1)* ng/mL and the “IGFBP-3, Δ” value (IGF-1 and IGFBP-3; 2 mg SC QD) was 0.6 (0.5)* Mg/L. For the same molecule, the “NTX, Δ” value ([10]; 1 mg SC QD) was 4.5 (24.9) nMBCE/mM, the “Osteocalcin, Δ” value ([10]; 1 mg SC QD) was 1.5 (4.8) ng/mL and the NTX ([10]; 2 mg SC QD, 12 weeks) was “no changes”. The Osteocalcin within group ([10]; 2 mg SC QD, 12 weeks) was “increased significantly”, the “NTX, Δ” value ([10]; 2 mg SC QD) was −0.5 (27.7) nMBCE/mM and the “Osteocalcin, Δ” value ([10]; 2 mg SC QD) was 3.0 (2.8)* ng/mL. For the same molecule, the “Visceral fat (VAT) change” value ([11]; 1 mg SC QD, 12 weeks) was −3.6%, the “SAT, Δ” value ([11]; 1 mg SC QD) was 6.8 (21.2) cm^2 and the “VAT, Δ” value ([11]; 1 mg SC QD) was −11.9 (28.7) cm^2. For the same molecule, the “Visceral fat (VAT) change” value ([11]; 2 mg SC QD, 12 weeks) was −15.7%, the “SAT, Δ” value ([11]; 2 mg SC QD) was 4.4 (19.8) cm^2 and the “VAT, Δ” value ([11]; 2 mg SC QD) was −21.5 (27.9)* cm^2. For the same molecule, the “Visceral fat decrease within group” value ([11]; 2 mg, over 3 months) was “more than 15%”, the “subcutaneous fat (SAT)” value ([11]; 1 and 2 mg SC QD, 12 weeks, between or within groups) was “preserved; also recorded: did not change significantly” and the “Musculoskeletal AE's e.g. pain and arthralgias, subjects” value ([12]; 1 mg) was 26%. For the same molecule, the “Musculoskeletal AE's e.g. pain and arthralgias, subjects” value ([12]; 2 mg) was 29%.
